This assay has as its target Xanthine dehydrogenase/oxidase (Homo sapiens, UniProt P47989). The assay is described as follows: Inhibition of xanthine oxidase (unknown origin) using xanthine as substrate preincubated for 15 mins followed by substrate addition by spectrophotometric method.
Sequence of Xanthine dehydrogenase/oxidase (P47989 whole entry): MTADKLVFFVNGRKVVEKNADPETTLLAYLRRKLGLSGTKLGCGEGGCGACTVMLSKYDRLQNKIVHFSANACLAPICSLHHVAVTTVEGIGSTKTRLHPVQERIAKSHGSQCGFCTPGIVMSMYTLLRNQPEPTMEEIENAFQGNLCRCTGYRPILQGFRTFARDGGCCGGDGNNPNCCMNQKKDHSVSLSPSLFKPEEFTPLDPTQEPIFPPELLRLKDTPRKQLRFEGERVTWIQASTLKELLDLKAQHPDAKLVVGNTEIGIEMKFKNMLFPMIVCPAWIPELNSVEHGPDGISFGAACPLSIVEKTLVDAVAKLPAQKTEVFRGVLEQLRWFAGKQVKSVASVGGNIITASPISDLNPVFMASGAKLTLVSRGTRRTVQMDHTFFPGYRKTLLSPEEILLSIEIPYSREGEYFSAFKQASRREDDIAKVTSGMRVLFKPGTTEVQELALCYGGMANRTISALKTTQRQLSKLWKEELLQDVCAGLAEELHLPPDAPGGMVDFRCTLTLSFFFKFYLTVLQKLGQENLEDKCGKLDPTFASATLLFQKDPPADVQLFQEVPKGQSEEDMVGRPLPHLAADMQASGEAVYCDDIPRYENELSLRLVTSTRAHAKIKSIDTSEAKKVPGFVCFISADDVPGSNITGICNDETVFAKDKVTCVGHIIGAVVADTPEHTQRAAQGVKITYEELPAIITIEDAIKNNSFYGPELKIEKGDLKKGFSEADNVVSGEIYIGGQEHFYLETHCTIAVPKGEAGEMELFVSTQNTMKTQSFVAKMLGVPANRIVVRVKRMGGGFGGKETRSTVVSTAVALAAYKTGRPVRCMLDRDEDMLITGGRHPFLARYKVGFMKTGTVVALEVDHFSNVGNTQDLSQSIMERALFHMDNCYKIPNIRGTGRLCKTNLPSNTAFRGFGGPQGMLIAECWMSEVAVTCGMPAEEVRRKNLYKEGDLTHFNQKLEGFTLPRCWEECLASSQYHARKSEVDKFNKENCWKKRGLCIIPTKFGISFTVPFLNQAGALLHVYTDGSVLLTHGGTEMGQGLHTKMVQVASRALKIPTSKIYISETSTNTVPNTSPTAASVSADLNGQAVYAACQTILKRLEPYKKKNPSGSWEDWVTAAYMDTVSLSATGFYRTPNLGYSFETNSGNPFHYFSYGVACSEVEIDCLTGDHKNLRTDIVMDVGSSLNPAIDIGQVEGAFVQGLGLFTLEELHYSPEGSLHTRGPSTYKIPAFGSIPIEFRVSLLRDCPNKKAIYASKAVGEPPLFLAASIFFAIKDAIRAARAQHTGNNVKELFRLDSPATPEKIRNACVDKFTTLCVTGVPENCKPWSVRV
As usually defined, the IC50 is the concentration needed to halve the response being measured. A higher IC50 goes with weaker potency. Compound `COc1cc(C(=O)OC[C@@]2(O)CO[C@@H](O[C@H]3[C@H](Oc4ccc(C(=O)O)cc4OC)O[C@H](CO)[C@@H](O)[C@@H]3O)[C@@H]2O)ccc1O` displayed an IC50 above 100 µM.

`O=c1c(O[C@@H]2O[C@H](CO)[C@@H](O)[C@H](O)[C@H]2O)c(-c2ccc(O)c(O)c2)oc2cc(O)cc(O)c12` [ISOQUERCETIN] came in with a concentration for half-maximal inhibition (IC50) of 1.6 µM. This counts as single-digit micromolar.

`C=C1CC[C@]2(C(=O)O[C@@H]3O[C@H](CO[C@@H]4O[C@H](CO)[C@@H](O[C@@H]5O[C@@H](C)[C@H](O)[C@@H](O)[C@H]5O)[C@H](O)[C@H]4O)[C@@H](O)[C@H](O)[C@H]3O)CC[C@]3(C)C(=CC[C@@H]4[C@@]5(C)CC[C@H](O[C@@H]6O[C@H](CO)[C@@H](O)[C@H](O[C@@H]7OC[C@H](O)[C@H](O)[C@H]7O[C@@H]7O[C@@H](C)[C@H](O)[C@@H](O)[C@H]7O)[C@H]6O)C(C)(C)[C@@H]5CC[C@]43C)[C@@H]2C1` showed an IC50 above 100 µM.

Source of the values: ChEMBL document CHEMBL4033690, “Potential anti-gout constituents as xanthine oxidase inhibitor from the fruits of Stauntonia brachyanthera” (Bioorg Med Chem, 2017).
